According to PubChem BioAssay AID1259407 (Chemical Carcinogenesis Research Information System (CCRIS), 2018):
The source made the active and inactive calls. The rule behind the calls is not given here.

Test system: CCRIS mutagenicity, Ames/micronucleus/aberration tests
Experiment: CCRIS mutagenicity studies
[1] = Test System: AMES SALMONELLA TYPHIMURIUM, Strain/Indicator: TA97, Metabolic Activation: NONE, Method: STANDARD PLATE
[2] = Test System: AMES SALMONELLA TYPHIMURIUM, Strain/Indicator: TA97, Metabolic Activation: RAT, LIVER, S-9, AROCLOR 1254, Method: STANDARD PLATE
[3] = Test System: AMES SALMONELLA TYPHIMURIUM, Strain/Indicator: TA98, Metabolic Activation: NONE, Method: STANDARD PLATE
[4] = Test System: AMES SALMONELLA TYPHIMURIUM, Strain/Indicator: TA98, Metabolic Activation: RAT, LIVER, S-9, AROCLOR 1254, Method: STANDARD PLATE
[5] = Test System: AMES SALMONELLA TYPHIMURIUM, Strain/Indicator: TA100, Metabolic Activation: NONE, Method: STANDARD PLATE
[6] = Test System: AMES SALMONELLA TYPHIMURIUM, Strain/Indicator: TA100, Metabolic Activation: RAT, LIVER, S-9, AROCLOR 1254, Method: STANDARD PLATE
[7] = Test System: AMES SALMONELLA TYPHIMURIUM, Strain/Indicator: TA102, Metabolic Activation: NONE, Method: STANDARD PLATE

## NCCc1cnc[nH]1
[1]
  mutagenic call: inactive; negative
[2]
  mutagenic call: inactive; negative
[3]
  mutagenic call: inactive; negative
[4]
  mutagenic call: inactive; negative
[5]
  mutagenic call: inactive; negative
[6]
  mutagenic call: inactive; negative
[7]
  mutagenic call: inactive; negative
Test System: AMES SALMONELLA TYPHIMURIUM, Strain/Indicator: TA102, Metabolic Activation: RAT, LIVER, S-9, AROCLOR 1254, Method: STANDARD PLATE
  mutagenic call: inactive; negative
Test System: UDS RAT HEPATOCYTES, Strain/Indicator: THY INCORP, Metabolic Activation: NONE, Method: AUTORADIOGRAPHY
  mutagenic call: inactive; negative

## O[C@H]1C=Cc2c(ccc3c4c5c(cccc5cc23)C=C4)[C@@H]1O
[3]
  mutagenic call: inactive; negative
Test System: AMES SALMONELLA TYPHIMURIUM, Strain/Indicator: TA98, Metabolic Activation: RAT, LIVER, S-9, AROCLOR 1254 (0.4, 0.8, 1.15 OR 1.5 MG/PLATE), Method: STANDARD PLATE
  mutagenic call: active; positive
[4]
  mutagenic call: active; positive

## O=C1O[C@H]([C@@H](O)CO)C(O)=C1O
End Point: IN VITRO CHROMOSOMAL ABERRATIONS, Test System: CHO CELLS, Metabolic Activation: RAT, LIVER, S-9, AROCLOR 1254
  mutagenic call: inactive; negative
End Point: IN VITRO MICRONUCLEUS, Test System: CHINESE HAMSTER OVARY (CHO-K5), Metabolic Activation: NONE
  mutagenic call: active; positive; no statistical analysis was performed
End Point: In vitro chromosomal aberrations, Test System: Chinese hamster lung CHL/IU cells, Metabolic Activation: None
  mutagenic call: inactive; negative. toxicicity at highest dose.
End Point: In vitro chromosomal aberrations, Test System: Chinese hamster ovary (CHO) cells, Metabolic Activation: None
  mutagenic call: inactive; negative; vitamin c, alone or in combination with glutamine, reduced effect of d
End Point: In vitro chromosomal aberrations, Test System: Human peripheral blood lymphocytes, Metabolic Activation: None
  mutagenic call: active; positive (structural changes); response at highest dose only
End Point: In vivo chromosomal aberrations, Test System: Bone marrow cells, Species: Rat, Strain/Sex: Wistar/Male and female, Route: Oral
  mutagenic call: inactive; negative; vitamin c, alone or with glutamine, reduced effect of doxorubicin
Test System: AMES SALMONELLA TYPHIMURIUM, Strain/Indicator: TA97, Metabolic Activation: HAMSTER, LIVER, S-9, AROCLOR 1254 (10 OR 30%), Method: PREINCUBATION
  mutagenic call: inactive; negative
Test System: AMES SALMONELLA TYPHIMURIUM, Strain/Indicator: TA97, Metabolic Activation: NONE, Method: PREINCUBATION
  mutagenic call: inactive; negative
[1]
  mutagenic call: inactive; negative
Test System: AMES SALMONELLA TYPHIMURIUM, Strain/Indicator: TA97, Metabolic Activation: RAT, LIVER, S-9, AROCLOR 1254 (10 OR 30%), Method: PREINCUBATION
  mutagenic call: inactive; negative
[2]
  mutagenic call: inactive; negative
Test System: AMES SALMONELLA TYPHIMURIUM, Strain/Indicator: TA98, Metabolic Activation: HAMSTER, LIVER, S-9, AROCLOR 1254 (10 OR 30%), Method: PREINCUBATION
  mutagenic call: inactive; negative
Test System: AMES SALMONELLA TYPHIMURIUM, Strain/Indicator: TA98, Metabolic Activation: NONE, Method: PREINCUBATION
  mutagenic call: inactive; negative
[3]
  mutagenic call: inactive; negative
Test System: AMES SALMONELLA TYPHIMURIUM, Strain/Indicator: TA98, Metabolic Activation: RAT, LIVER, S-9, AROCLOR 1254 (10 OR 30%), Method: PREINCUBATION
  mutagenic call: inactive; negative
[4]
  mutagenic call: inactive; negative
Test System: AMES SALMONELLA TYPHIMURIUM, Strain/Indicator: TA100, Metabolic Activation: HAMSTER, LIVER, S-9, AROCLOR 1254 (10 OR 30%), Method: PREINCUBATION
  mutagenic call: inactive; negative
Test System: AMES SALMONELLA TYPHIMURIUM, Strain/Indicator: TA100, Metabolic Activation: NONE, Method: PREINCUBATION
  mutagenic call: inactive; negative
[5]
  mutagenic call: inactive; negative
Test System: AMES SALMONELLA TYPHIMURIUM, Strain/Indicator: TA100, Metabolic Activation: RAT, LIVER, S-9, AROCLOR 1254 (10 OR 30%), Method: PREINCUBATION
  mutagenic call: inactive; negative
[6]
  mutagenic call: inactive; negative
[7]
  mutagenic call: inactive; negative
Test System: AMES SALMONELLA TYPHIMURIUM, Strain/Indicator: TA104, Metabolic Activation: NONE, Method: STANDARD PLATE
  mutagenic call: inactive; negative
Test System: AMES SALMONELLA TYPHIMURIUM, Strain/Indicator: TA1535, Metabolic Activation: HAMSTER, LIVER, S-9, AROCLOR 1254 (10 OR 30%), Method: PREINCUBATION
  mutagenic call: inactive; negative
Test System: AMES SALMONELLA TYPHIMURIUM, Strain/Indicator: TA1535, Metabolic Activation: NONE, Method: PREINCUBATION
  mutagenic call: inactive; negative
Test System: AMES SALMONELLA TYPHIMURIUM, Strain/Indicator: TA1535, Metabolic Activation: RAT, LIVER, S-9, AROCLOR 1254 (10 OR 30%), Method: PREINCUBATION
  mutagenic call: inactive; negative
Test System: AMES SALMONELLA TYPHIMURIUM, Strain/Indicator: TA1537, Metabolic Activation: HAMSTER, LIVER, S-9, AROCLOR 1254 (10 OR 30%), Method: PREINCUBATION
  mutagenic call: inactive; negative
Test System: AMES SALMONELLA TYPHIMURIUM, Strain/Indicator: TA1537, Metabolic Activation: NONE, Method: PREINCUBATION
  mutagenic call: inactive; negative
Test System: AMES SALMONELLA TYPHIMURIUM, Strain/Indicator: TA1537, Metabolic Activation: RAT, LIVER, S-9, AROCLOR 1254 (10 OR 30%), Method: PREINCUBATION
  mutagenic call: inactive; negative
Test System: E. coli, Strain/Indicator: YG5190 (WP2 uvrA/pKM101 deficient in mutM gene), Metabolic Activation: None, Method: Preincubation
  mutagenic call: inactive; negative. addition of sodium nitrite (100 ug/plate) increased mutagenic response
Test System: E. coli, Strain/Indicator: YG5190 (WP2 uvrA/pKM101 deficient in mutM gene), Metabolic Activation: S9, Method: Preincubation
  mutagenic call: inactive; negative. addition of sodium nitrite (100 ug/plate) increased mutagenic response
Test System: HCT116 COLON CANCER CELLS, Strain/Indicator: HCT116 CELLS (HPRT)/6-THIOGUANINE, Metabolic Activation: NONE, Method: STANDARD PLATE
  mutagenic call: inactive; negative

## Cc1c2cc(CO)ccc2nc2c1c1c(c3ccccc32)O1
[5]
  mutagenic call: inactive; negative

## ClCc1ccc2ccc3cc4ccccc4c4ccc1c2c34
[3]
  mutagenic call: inactive; negative
[5]
  mutagenic call: inactive; negative

## COc1c2ccoc2nc2c(OC)c(OCC3OC3(C)C)ccc12 (stereo unspecified)
Test System: AMES SALMONELLA TYPHIMURIUM, Strain/Indicator: TA98, Metabolic Activation: RAT, LIVER, S-9, PHENOBARBITAL, Method: STANDARD PLATE
  mutagenic call: inactive; negative
Test System: AMES SALMONELLA TYPHIMURIUM, Strain/Indicator: TA100, Metabolic Activation: RAT, LIVER, S-9, PHENOBARBITAL, Method: STANDARD PLATE
  mutagenic call: inactive; negative

## [N-]=[N+]=NCC(O)Cn1cnc2c(N)ncnc21 (stereo unspecified)
[5]
  mutagenic call: active; positive

## Cn1cnc2ccc([N+](=O)[O-])cc21
[3]
  mutagenic call: active; positive
